Legend:
[1] = system: macrophages in co-culture with cells isolated from primary human tumors; test: Marker expression (IHC) in macrophages co-cultured with primary human tumor cells (colon, breast, ovarian, lung carcinoma, melanoma); assay type: cell-based; conditions: SP + antagonist;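 note: macrophages came from pleural or peritoneal washings of the patient who also supplied the tumor cells, and both were co-cultured on fresh blood plasma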
[2] = system: co-cultures of tumor cells-immune/inflammatory cells (leukocytes); test: Inhibition/survival in co-cultures of primary human tumor cells and leukocytes; assay type: cell-based; conditions: SP + antagonist
Protocol: To check that the interaction between the human primary tumor cells with human immune/inflammatory (polymorphonuclear and mononuclear leukocytes) cells, promotes the survival of both types of cells, cultures were carried out with sets of immune/inflammatory cells (mono and polymorphonuclear leukocytes) with tumor cells obtained directly from human primary tumors of patients.
The leukocytes were obtained from centrifugation of blood from the same patient. The leukocytes were cultured in fresh plasma from the same patient, in order to build a model similar to human physiology.

| SMILES | expression of markers in macrophages co-cultured with primary tumor cells (in words) [1] | survival/proliferation in co-cultures of tumor cells-leukocytes (in words) [2] |
| --- | --- | --- |
| COc1ccccc1CN[C@H]1C2CCN(CC2)[C@H]1C(c1ccccc1)c1ccccc1 [CP-96345] | same results | same results |
| C#C[C@]1(O)CC[C@H]2[C@@H]3CCC4=Cc5nc6nc7ccccc7n6cc5C[C@]4(C)[C@H]3CC[C@@]21C [WIN 62,577] | same results | same results |
| CC(=O)N[C@@H](Cc1c[nH]c2ccccc12)C(=O)OCc1cc(C(F)(F)F)cc(C(F)(F)F)c1 [L-732,138, N-Acetyl-L-tryptophan 3,5-bis (trifluoromethyl)benzyl ester] | same results | same results |
| C#C[C@]1(O)CC[C@H]2[C@@H]3CC[C@H]4Cc5nc6nc7ccccc7n6cc5C[C@]4(C)[C@H]3CC[C@@]21C [WIN 51708] | same results | same results |
| Cl.FC(F)(F)c1cc(CO[C@H]2CCCN[C@H]2c2ccccc2)cc(C(F)(F)F)c1 [L-733,060, (2S,3S)-3-[(3,5-bis (Trifluoromethyl)phenyl)methoxy]-2-phenylpiperidine hydrochloride] | same results | same results |
| Ic1ccccc1CNC1C2CCN(CC2)C1C(c1ccccc1)c1ccccc1.O=C(O)C(=O)O [L-703,606, cis-2-(Diphenylmethyl)-N-[(2-iodophenyl)methyl]-1-azabicyclo [2.2.2]octan-3-amine oxalate salt] | same results | same results |
| COc1ccccc1CN[C@H]1CCCN[C@H]1c1ccccc1 [CP-100263] | same results | same results |
| C[C@@H](O[C@H]1OCCN(Cc2n[nH]nc2CN(C)C)[C@H]1c1ccc(F)cc1)c1cc(C(F)(F)F)cc(C(F)(F)F)c1.Cl [L-760735] | same results | same results |

From patent US20180071317A1, “USE OF AGENTS THAT ALTER THE PERITUMORAL ENVIRONMENT FOR THE TREATMENT OF CANCER” (SERVICIO ANDALUZ DE SALUD, priority 2011, published 2018)
